Each structure is given as a SMILES string.

This note sets out measurements from ChEMBL document CHEMBL1137849, “Rational design of 6-methylsulfonylindoles as selective cyclooxygenase-2 inhibitors” (Bioorg Med Chem Lett, 2004).

In series [1] the target is T1, Prostaglandin G/H synthase 1 (Homo sapiens, UniProt P23219). Briefly: Inhibitory concentration against human whole blood Prostaglandin G/H synthase 1 enzyme activity.
Series [2] concerns the target T2, Prostaglandin G/H synthase 2 (Homo sapiens, UniProt P35354).
T2 sequence (P35354 whole entry): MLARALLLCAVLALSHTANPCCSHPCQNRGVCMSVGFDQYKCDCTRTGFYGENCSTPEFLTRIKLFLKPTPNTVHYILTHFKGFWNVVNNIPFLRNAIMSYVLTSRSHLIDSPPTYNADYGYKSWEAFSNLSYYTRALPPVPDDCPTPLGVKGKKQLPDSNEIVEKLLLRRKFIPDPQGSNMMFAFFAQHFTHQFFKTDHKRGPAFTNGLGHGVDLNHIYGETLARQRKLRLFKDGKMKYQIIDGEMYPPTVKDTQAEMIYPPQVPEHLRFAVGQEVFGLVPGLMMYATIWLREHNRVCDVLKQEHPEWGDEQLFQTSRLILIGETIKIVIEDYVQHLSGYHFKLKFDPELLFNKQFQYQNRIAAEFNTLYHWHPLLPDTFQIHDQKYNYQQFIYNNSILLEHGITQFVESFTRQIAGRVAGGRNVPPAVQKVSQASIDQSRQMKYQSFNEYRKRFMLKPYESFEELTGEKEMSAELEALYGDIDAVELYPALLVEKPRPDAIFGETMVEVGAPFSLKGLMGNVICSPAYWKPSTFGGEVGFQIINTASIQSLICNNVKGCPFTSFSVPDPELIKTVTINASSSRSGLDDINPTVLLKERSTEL
Nature of the series: Inhibitory concentration against human whole blood Prostaglandin G/H synthase 2 enzyme activity was determined.

The target in series [3] is T2, Prostaglandin G/H synthase 2. Nature of the series: In vitro inhibitory concentration against Prostaglandin G/H synthase 2 enzyme activity.
Series [4] can be described thus: In vitro inhibitory concentration against Prostaglandin G/H synthase 1 enzyme activity.
Series [5] in a line: Area under curve plasma concentration of compound in rat when administered perorally at 10 mg/kg dose. Further details: dose 10 mg/kg, route oral. To be noted: in vivo, po. It counts as ADME, organism-based.
Series [6] can be described thus: Plasma half life of compound was determined in rat. The class given is ADME.
The target of series [7] is T1, Prostaglandin G/H synthase 1. Nature of the series: Inhibitory concentration against human whole blood Prostaglandin G/H synthase 1.
A short description of series [8]: In vitro inhibitory concentration against Prostaglandin G/H synthase 1.

T1 sequence (P23219 whole entry): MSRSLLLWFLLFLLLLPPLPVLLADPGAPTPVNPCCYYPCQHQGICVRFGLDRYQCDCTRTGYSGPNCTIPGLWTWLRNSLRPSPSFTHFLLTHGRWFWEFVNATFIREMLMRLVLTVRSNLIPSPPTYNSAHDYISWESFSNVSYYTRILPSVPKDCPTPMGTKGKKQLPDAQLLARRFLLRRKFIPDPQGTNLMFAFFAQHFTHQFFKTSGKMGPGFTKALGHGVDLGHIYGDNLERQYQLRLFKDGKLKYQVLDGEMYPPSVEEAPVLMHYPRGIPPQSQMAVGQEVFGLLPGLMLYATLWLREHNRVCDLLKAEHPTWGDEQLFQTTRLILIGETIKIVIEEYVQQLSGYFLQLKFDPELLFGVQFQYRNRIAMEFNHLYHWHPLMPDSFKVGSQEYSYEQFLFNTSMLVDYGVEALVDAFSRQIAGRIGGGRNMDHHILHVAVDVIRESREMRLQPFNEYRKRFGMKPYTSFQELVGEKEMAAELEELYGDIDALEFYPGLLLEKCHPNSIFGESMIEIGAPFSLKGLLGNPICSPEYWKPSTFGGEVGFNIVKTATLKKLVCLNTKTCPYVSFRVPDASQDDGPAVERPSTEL

For orientation: IC50 means the concentration needed to halve the response being measured. Low readings indicate greater potency in that assay, high ones weaker potency in that assay. As for `COC(=O)c1[nH]c2cc(S(C)(=O)=O)ccc2c1Sc1ccc(F)cc1F`, the IC50 in series [1] was determined as 17.2 µM; in series [2], 0.38 µM; in series [3] it was 0.38 µM.

As for `COc1ccc(Oc2c(C)[nH]c3cccc(S(C)(=O)=O)c23)cc1`, the IC50 was 6 µM in series [1], 1.6 µM in series [2], over 30 µM in series [4] and 0.2 µM in series [3].

As for `COc1ccc(Sc2c(C#N)[nH]c3cc(S(C)(=O)=O)ccc23)c(Cl)c1`, the IC50 is 8.1 µM in series [1], 1.09 µM in series [2] and 0.33 µM in series [3].

For orientation: AUC means the area under the concentration-time curve, a measure of exposure. Read a low AUC as less exposure. On to `CS(=O)(=O)c1ccc2c(Sc3ccccc3Cl)c(C#N)[nH]c2c1`, for which the IC50 was over 67 µM in series [1], 0.57 µM in series [2] and 0.13 µM in series [3]. Besides, in series [5], the AUC is 56 µM·h.

With `Cc1[nH]c2cc(S(C)(=O)=O)ccc2c1Sc1ccccn1`, the IC50 in series [1] was 30 µM; in series [2] it was 5.2 µM; in series [3], 1.78 µM.

Regarding `Cc1[nH]c2cc(S(C)(=O)=O)ccc2c1[S+]([O-])c1ccc(F)cc1` (centres undefined), in series [3], the IC50 was over 40 µM.

As usually defined, the half-life is the time in which the quantity being followed falls by half. Read a low half-life as fast loss. For `Cc1[nH]c2cc(S(C)(=O)=O)ccc2c1Cc1ccc(F)cc1F`, the IC50 was 98 µM in series [1], 8.4 µM in series [2], over 40 µM in series [4] and 0.26 µM in series [3]. The half-life in series [6] was 4.1 h. In series [5], this compound returned an AUC of 72 µM·h.

Consider `COc1ccc(C(=O)c2c(C)[nH]c3cc(S(C)(=O)=O)ccc23)cc1`, for which the IC50 in series [1] is 3.5 µM; in series [2], 2.6 µM; in series [4] it was over 40 µM.

In the case of `CS(=O)(=O)c1ccc2c(Sc3ccc(F)cc3)c(CO)[nH]c2c1`, the IC50 in series [1] is over 100 µM; in series [2] it was 5.9 µM; in series [3], 0.42 µM.

As to `COC(=O)c1[nH]c2cc(S(C)(=O)=O)ccc2c1Sc1ccc(F)cc1`, the IC50 in series [1] stood at 9.3 µM; in series [2], 1.1 µM; in series [3] it was 0.8 µM.

Take `Cc1[nH]c2cc(S(C)(=O)=O)ccc2c1Oc1ccc(Cl)cc1`: the IC50 in series [1] is 12 µM; in series [2] it was 3.8 µM; in series [4] it was 30 µM; in series [3], 0.3 µM.

As for `COc1ccc(Sc2c(C)[nH]c3cc(S(C)(=O)=O)ccc23)cc1`, the IC50 turned out to be 18 µM in series [1], 4.8 µM in series [2], 9 µM in series [4] and 0.47 µM in series [3].

`CNC(=O)c1[nH]c2cc(S(C)(=O)=O)ccc2c1Sc1ccc(F)cc1F` yielded an IC50 in series [3] of over 40 µM.

`CS(=O)(=O)c1ccc2c(Sc3ccc(F)cc3F)c(C#N)[nH]c2c1`: the IC50 was over 60 µM in series [1], 1.27 µM in series [2] and 0.94 µM in series [3]. For the same compound, the half-life in series [6] is 6.3 h. The AUC in series [5] came to 316 µM·h.

In the case of `CS(=O)(=O)c1ccc2c(Sc3ccc(F)cc3)c(C(=O)O)[nH]c2c1`, the concentration for half-maximal inhibition (IC50) in series [3] is over 40 µM.

Consider `Cc1[nH]c2cc(S(C)(=O)=O)ccc2c1Cc1ccc(Cl)cc1`, for which the IC50 in series [1] was 71.1 µM; in series [2], 5.6 µM; in series [4] it was over 40 µM; in series [3], 0.26 µM.

For `CS(=O)(=O)Cc1[nH]c2cc(S(C)(=O)=O)ccc2c1Sc1ccccc1Cl`, the IC50 in series [3] was over 40 µM.

For `Cc1[nH]c2cc(S(C)(=O)=O)ccc2c1Oc1ccc(F)cc1F`, the IC50 was 33 µM in series [1], 4.1 µM in series [2], 39.5 µM in series [4] and 0.11 µM in series [3].

On to `Cc1[nH]c2cc(S(C)(=O)=O)ccc2c1Oc1ccc(Cl)cc1Cl`, for which the IC50 in series [1] came out at 33 µM; in series [2], 4.1 µM; in series [4], 25.8 µM; in series [3] it was 0.11 µM.

Turning to `Cc1[nH]c2cc(S(C)(=O)=O)ccc2c1C(=O)c1ccc(F)cc1`, the IC50 in series [1] stood at 2.44 µM; in series [2], 1.72 µM; in series [4], 100 µM; in series [3], 0.66 µM.

Turning to `Cc1[nH]c2cc(S(C)(=O)=O)ccc2c1Oc1ccc(F)cc1`, the IC50 in series [7] was 37 µM; in series [2], 2 µM; in series [4], over 40 µM; in series [3], 0.03 µM. Moreover, in series [6], the half-life was 6.2 h. In series [5], this compound had an AUC of 35 µM·h.

Take `Cc1[nH]c2cc(S(C)(=O)=O)ccc2c1Cc1ccc(F)cc1`: the 50% inhibitory concentration (IC50) in series [1] is 63.9 µM; in series [2], 11.3 µM; in series [4], over 40 µM; in series [3], 0.08 µM.

For `Cc1[nH]c2cc(S(C)(=O)=O)ccc2c1Sc1ccc(F)cc1`, the IC50 in series [1] was 55.7 µM; in series [2] it was 2.2 µM; in series [4], over 40 µM; in series [3] it was 0.02 µM.

As to `CS(=O)(=O)c1ccc2c(Sc3ccc(F)cc3F)c(C(N)=O)[nH]c2c1`, the IC50 in series [1] was over 40 µM; in series [2], over 40 µM; in series [3], 2.24 µM.

Consider `Cc1[nH]c2cc(S(C)(=O)=O)ccc2c1Cc1ccccc1Cl`, for which the IC50 in series [1] is 118 µM; in series [2], 5.5 µM; in series [8], over 40 µM; in series [3] it was 0.07 µM.

With `Cc1[nH]c2cc(S(C)(=O)=O)ccc2c1Sc1ccc(F)cc1F`, the IC50 in series [1] is 18.2 µM; in series [2], 0.77 µM. The AUC in series [5] came to 118 µM·h.

`CC(=O)OCc1[nH]c2cc(S(C)(=O)=O)ccc2c1Sc1ccccc1Cl`: the IC50 in series [3] was over 40 µM.

Take `CS(=O)(=O)c1ccc2c(Sc3ccc(F)cc3)c(C(N)=O)[nH]c2c1`: the IC50 in series [1] was over 40 µM; in series [2], over 40 µM; in series [3] it was 1.21 µM.

In series [3], `Cc1[nH]c2cc(S(C)(=O)=O)ccc2c1S(=O)(=O)c1ccc(F)cc1` came in with an IC50 of over 40 µM.

For `CS(=O)(=O)c1ccc2c(Sc3ccc(F)cc3)c(C#N)[nH]c2c1`, the IC50 is over 125 µM in series [1] and 2.3 µM in series [2].

For the compound `COc1ccc(Oc2c(C)[nH]c3cc(S(C)(=O)=O)ccc23)cc1`, the IC50 was 6 µM in series [1], 1.6 µM in series [2], over 30 µM in series [4] and 0.2 µM in series [3].

For `COc1ccc(Cc2c(C)[nH]c3cc(S(C)(=O)=O)ccc23)cc1`, the IC50 in series [1] was 7.3 µM; in series [2], 5.1 µM; in series [4], over 45 µM; in series [3], 0.27 µM.
